Data as given in paper PMC9749938, “Alkyltriphenylphosphonium turns naphthoquinoneimidazoles into potent membrane depolarizers against mycobacteria” (RSC Medicinal Chemistry, 2022).
≈ marks a conversion by molar mass, not a printed value. Read-outs that look alike come from different tables or passages of the source.

How the values were obtained:
M. bovis BCG [1] = assay: microbe, parasite or virus in culture; type: cell-based, Mycobacterium bovis BCG; settings: for MIC50 / MIC90 / IC50: Mycobacterium tuberculosis variant bovis BCG, BCG; for MIC50: read-out: M. bovis BCG MIC50, concentration reducing growth by 50% vs untreated controls; for M. bovis BCG MIC50: concentration reducing growth by 50% vs untreated controls; for M. bovis BCG MIC90: concentration reducing growth by 90% vs untreated controls; for IC50: read-out: M. bovis BCG MIC50
Vero E6 cells = assay: Cytotoxicity on Vero E6 cells; type: cell-based, African green monkey; settings: Chlorocebus sabaeus, Vero C1008; 48 h; reduces growth of Vero E6 by 50% vs untreated controls
M. bovis BCG-pfurA-RFP = type: cell-based, Mycobacterium bovis BCG; settings: 24 h, 37 °C
[2] = system: inverted membrane vesicles of wild-type M. smegmatis mc^24517; assay: NADH oxidation in inverted membrane vesicles, WT; type: biochemical; settings: for EC50: WT M. smegmatis mc^24517, read-out: EC50 of activation of NADH oxidation, WT IMV
M. bovis BCG [3] = type: cell-based, Mycobacterium bovis BCG; settings: 0.5× to 2× MIC90, 1.5 h + 30 min dye
M. bovis BCG [4] = type: cell-based, Mycobacterium bovis BCG; settings: 4× MIC90, up to 24 h
M. bovis BCG [5] = type: cell-based, Mycobacterium bovis BCG; settings: 4× MIC90, time course to 24 h and after
M. bovis BCG [6] = assay: microbe, parasite or virus in culture; type: cell-based; settings: Mycobacterium tuberculosis variant bovis BCG, 120 h
M. bovis BCG [7] = type: cell-based, Mycobacterium bovis BCG; settings: 4× MIC90, after 24 hours
M. bovis BCG [8] = type: cell-based, Mycobacterium bovis BCG; settings: 4× MIC90, up to 24 h; remark: listed apart in the source
M. bovis BCG [9] = type: cell-based, Mycobacterium bovis BCG
M. tb H37Rv = assay: MIC determination by broth dilution on M. tb H37Rv; type: cell-based; settings: Mycobacterium tuberculosis
[10] = Horseradish peroxidase-phenol red assay for H2O2 generation; type: biochemical; settings: in vitro, with DTT
[11] = Aqueous solubility (Multiscreen solubility filter plates); type: physicochemical; settings: pH 7.4, 24 h agitation
M. bovis BCG-piniBAC-RFP = type: cell-based, Mycobacterium bovis BCG; settings: 24 h, various concentrations
[12] = read-out: M. bovis BCG MIC90, concentration reducing growth by 90% vs untreated controls, broth dilution
[13] = read-out: MIC90 of control compounds (Fig. 4 legend), controls of redox assays, organism not restated
[14] = Universal buffer with 1% DMSO, pH 7.4, 25 °C

Row | Structure (SMILES) | MIC50 (M. bovis BCG [1]; broth dilution) [µM] | MIC90 (M. bovis BCG [1]; [12]) [µM] | M. bovis BCG MIC50 (M. bovis BCG [1]; broth dilution) | IC50 (Vero E6 cells) [µM] | other results
1 | Cc1nc2c(n1CCCCCCCCCCC[P+](C1CCCCC1)(C1CCCCC1)C1CCCCC1)C(=O)c1ccccc1C2=O.[I-] [Compound 18] | 0.6 | 0.9 | 0.6 (0.6, 0.6) μM | 4.1 | –
2 | CCCCCCCCn1c2c([n+](CCCC)c1C)C(=O)c1ccccc1C2=O.[Br-] [Compound 45, reference compound] | – | – | – | – | Induction of pfurA promoter (RFP fluorescence) (M. bovis BCG-pfurA-RFP): discernible dose-dependent increase in the fluorescence signal; EC50 [2]: 0.2 µM; ROS formation in cultures (CellROX Green) (M. bovis BCG [3]): dose-dependent ROS formation; MIC90 (M. bovis BCG [1]; [13]): 0.32 µM
3 | Cc1nc2c(n1CCCCC[P+](c1ccccc1)(c1ccccc1)c1ccccc1)C(=O)c1ccccc1C2=O.[I-] [Compound 4] | 2.4 | 4.6 | – | > 400 | M. bovis BCG MIC90 (M. bovis BCG [1]; broth dilution): 4.6 (4.6, 4.6) μM
4 | Cc1nc2ccccc2n1CCCCCCCCCCC[P+](c1ccccc1)(c1ccccc1)c1ccccc1.[I-] [Compound 11] | 0.9 | 1.4 | – | 11.5 | M. bovis BCG MIC90 (M. bovis BCG [1]; broth dilution): 1.4 (1.4, 1.4) μM
5 | CCCCCC[P+](CCCCCC)(CCCCCC)CCCCCCCn1c(C)nc2c1C(=O)c1ccccc1C2=O.[I-] [Compound 19] | 0.7 | 1.4 | 0.7 (0.7, 0.7) μM | 5.2 | M. bovis BCG MIC90 (M. bovis BCG [1]; broth dilution): 1.4 (1.4, 1.4) μM
6 | Cc1nc2c(n1CCCCCCC[n+]1ccccc1)C(=O)c1ccccc1C2=O.[I-] [Compound 16] | 28.7 | 48.5 | 28.7 (32.5, 25.0) μM | – | M. bovis BCG MIC90 (M. bovis BCG [1]; broth dilution): 48.5 (48.0, 49.0) μM
7 | CCCCCCC[P+](c1ccccc1)(c1ccccc1)c1ccccc1.[I-] [Compound 8] | 5.5 | 10.5 | – | – | Membrane potential (DiOC2(3) red/green ratio) (M. bovis BCG [4]): behaved similarly to 6 and 7; M. bovis BCG MIC90 (M. bovis BCG [1]; broth dilution): 10.5 (10.2, 10.8) μM
8 | O=C1c2ccccc2C(=O)c2c1nc(C(F)(F)F)n2CCCCCCCCCCC[P+](c1ccccc1)(c1ccccc1)c1ccccc1 [Compound 14] | 1.8 | 2.8 | – | 5.6 | –
9 | O=C1C=CC(=O)c2ccccc21 [NQ, 1,4-Naphthoquinone, reference compound] | – | – | – | – | MIC90 (M. bovis BCG [1]; [13]): 100 µM (≈ 15.8 µg/mL)
10 | CCCCCCCCCCC[P+](c1ccccc1)(c1ccccc1)c1ccccc1.[I-] [Compound 9] | 2.1 | 2.8 | – | – | Membrane potential (DiOC2(3) red/green ratio) (M. bovis BCG [4]): behaved similarly to 6 and 7
11 | Cc1nc2c(n1CCCCCCC[P+](c1ccccc1)(c1ccccc1)c1ccccc1)C(=O)c1ccccc1C2=O.[I-] [Compound 5] | 1.2 | 2.3 | 1.2 (1.2, 1.2) μM | 48.4 | –
12 | Cc1nc2c(n1CCC[P+](c1ccccc1)(c1ccccc1)c1ccccc1)C(=O)c1ccccc1C2=O.[I-] [Compound 3] | 4 | 5.6 | 4.0 (4.0, 4.0) μM | > 400 | –
13 | Cc1cc(=O)n(CCCCCCCCCCC[P+](c2ccccc2)(c2ccccc2)c2ccccc2)c2c1C(=O)c1ccccc1C2=O [Compound 13] | 3.8 | 5.7 | – | 2.1 | –
14 | Cc1nc2c(n1CCCCCCCCC[P+](c1ccccc1)(c1ccccc1)c1ccccc1)C(=O)c1ccccc1C2=O.[I-] [Compound 6] | 0.59 | 1 | 0.58 (0.6, 0.59) μM | 12.4 | Intracellular ATP levels (M. bovis BCG [5]): initial drop in ATP levels; MBC (M. bovis BCG [6]; read-out: M. bovis BCG MBC90): 1.6 µM; MBC (M. bovis BCG [6]; read-out: M. bovis BCG MBC99): 3.1 µM; MBC (M. bovis BCG [6]; read-out: M. bovis BCG MBC99.9): 6.2 µM; Induction of pfurA promoter (RFP fluorescence) (M. bovis BCG-pfurA-RFP): not observed; CFU count of treated cultures (M. bovis BCG [7]): remained relatively constant; Membrane permeabilization (SYTO9/PI green/red ratio) (M. bovis BCG [8]): not accompanied by membrane permeabilization; Membrane potential (DiOC2(3) red/green ratio) (M. bovis BCG [4]): rapid and sustained loss of membrane potential; Time-kill: CFU over 21 days (M. bovis BCG [9]): steady decrease of CFU up to day 8; MIC50 (M. tb H37Rv): 0.37 µM; MIC90 (M. tb H37Rv): 0.8 µM; H2O2 generation, HRP-phenol red assay [10]: negligible H2O2 generation; ROS formation in cultures (CellROX Green) (M. bovis BCG [3]): negligible levels of ROS; solubility at 24 h ([11]; 25 °C): 105.8 µM; solubility at 24 h [11, 14]: 106 µM; Induction of piniBAC promoter (RFP fluorescence) (M. bovis BCG-piniBAC-RFP): no increase in fluorescence
15 | Cc1nc2c(n1CCCCCCCCCCC[P+](c1ccccc1)(c1ccccc1)c1ccccc1)C(=O)c1cccnc1C2=O [Compound 15] | 0.65 | 1.2 | – | 5.4 | IC50 (M. bovis BCG [1]): 0.6 µM
16 | Cc1nc2c(n1CCCCCCC[P+](C1CCCCC1)(C1CCCCC1)C1CCCCC1)C(=O)c1ccccc1C2=O.[I-] [Compound 17] | 1.3 | 2.5 | 1.3 (1.3, 1.3) μM | 24.4 | –
17 | NNC(=O)c1ccncc1 [INH, isoniazid, reference compound] | – | – | – | – | Time-kill: CFU over 21 days (M. bovis BCG [9]): rapid decrease in CFU in the first two time points; MIC90 (M. bovis BCG [1]; [13]): 3.7 µM (≈ 0.507 µg/mL); Induction of piniBAC promoter (RFP fluorescence) (M. bovis BCG-piniBAC-RFP): increased piniBAC promoter activity
18 | Cc1cc(=O)n(CCCCCCC[P+](c2ccccc2)(c2ccccc2)c2ccccc2)c2c1C(=O)c1ccccc1C2=O.[I-] [Compound 12] | 1 | 1.4 | – | 5.9 | M. bovis BCG MIC90 (M. bovis BCG [1]; broth dilution): 1.4 (1.4, 1.4) μM
19 | Cc1nc2ccccc2n1CCCCCCC[P+](c1ccccc1)(c1ccccc1)c1ccccc1.[I-] [Compound 10] | 3.8 | 5.6 | 3.8 (3.8, 3.8) μM | 86.4 | –
20 | Cc1nc2c(n1CCCCCCCCCCC[P+](c1ccccc1)(c1ccccc1)c1ccccc1)C(=O)c1ccccc1C2=O.[I-] [Compound 7] | 0.5 | ≤ 1 | – | 5.6 | Intracellular ATP levels (M. bovis BCG [5]): initial drop in ATP levels; MBC (M. bovis BCG [6]; read-out: M. bovis BCG MBC90): 1.6 µM; MBC (M. bovis BCG [6]; read-out: M. bovis BCG MBC99): 3.1 µM; MBC (M. bovis BCG [6]; read-out: M. bovis BCG MBC99.9): 6.2 µM; Induction of pfurA promoter (RFP fluorescence) (M. bovis BCG-pfurA-RFP): not observed; CFU count of treated cultures (M. bovis BCG [7]): remained relatively constant; Membrane permeabilization (SYTO9/PI green/red ratio) (M. bovis BCG [8]): not accompanied by membrane permeabilization; Membrane potential (DiOC2(3) red/green ratio) (M. bovis BCG [4]): rapid and sustained loss of membrane potential; MIC50 (M. tb H37Rv): 1.15 µM; MIC90 (M. tb H37Rv): 1.8 µM; H2O2 generation, HRP-phenol red assay [10]: negligible H2O2 generation; Activation of NADH oxidation, WT IMV ([2]; WT M. smegmatis): negligible activation of NADH oxidation; ROS formation in cultures (CellROX Green) (M. bovis BCG [3]): negligible levels of ROS; IC50 (M. bovis BCG [1]): 0.55 µM; solubility at 24 h [11, 14]: 27 µM; Induction of piniBAC promoter (RFP fluorescence) (M. bovis BCG-piniBAC-RFP): no increase in fluorescence
21 | CCCCn1c2c([n+](C3CCC4(CCCCC4)CC3)c1C)C(=O)c1ccccc1C2=O.[Br-] [Compound 44, reference compound] | – | – | – | – | Induction of pfurA promoter (RFP fluorescence) (M. bovis BCG-pfurA-RFP): discernible dose-dependent increase in the fluorescence signal; EC50 [2]: 0.76 µM; ROS formation in cultures (CellROX Green) (M. bovis BCG [3]): dose-dependent ROS formation; MIC90 (M. bovis BCG [1]; [13]): 0.32 µM
